Measured values reported in US20230172207A1 (BASF SE, priority 2020, published 2023).
Where two headings read alike, the source gives them in different places.

Experiments:
[1] = tested on: Phakopsora pachyrhizi (F129L); assay: Protective control of soybean rust on soybeans (PHAKPA P2); type: in vivo; settings: for % PHAKPA (F129L) Disease level, P2 at 4 ppm: protective P2, 4 ppm; for % PHAKPA (F129L) Disease level, P2 at 16 ppm: protective P2, 16 ppm
[2] = tested on: Phakopsora pachyrhizi (F129L); assay: Protective control of soybean rust on soybeans (PHAKPA P6); type: in vivo; settings: for % PHAKPA (F129L) Disease level, P6 at 4 ppm: protective P6, 4 ppm; for % PHAKPA (F129L) Disease level, P6 at 16 ppm: protective P6, 16 ppm
[3] = tested on: Septoria tritici; assay: Micro titer plate test against Septoria tritici causing leaf blotch on wheat (SEPTTR); type: cell-based; settings: 0.25 ppm
[4] = tested on: Leptosphaeria nodorum; assay: Micro titer plate test against Leptosphaeria nodorum causing wheat leaf spots (LEPTNO); type: cell-based; settings: for activity at 0.063 ppm: Parastagonospora nodorum, 168 h, read-out: Fungal growth (%) LEPTNO
[5] = tested on: Pyrenophora teres (wt); assay: Micro titer plate test against Pyrenophora teres causing net blotch on barley (PYRNTE wt); type: cell-based
[6] = tested on: Colletotrichum orbiculare; assay: Micro titer plate test against Colletotrichum orbiculare causing anthracnose (COLLLA); type: cell-based
[7] = tested on: Alternaria solani (F129L); assay: Micro titer plate test against Alternaria solani causing early blight (ALTESO F129L); type: cell-based; settings: relative growth vs compound-free control (100%), 7 days
[8] = tested on: Microdochium nivale; type: cell-based
[9] = tested on: Alternaria solani (wt); assay: microbe, parasite or virus in culture; type: cell-based
[10] = tested on: Pyricularia oryzae; assay: microbe, parasite or virus in culture; type: cell-based
[11] = tested on: Pyrenophora teres (F129L); assay: Micro titer plate test against Pyrenophora teres causing net blotch on barley (PYRNTE F129L); type: cell-based; settings: 0.25 ppm, relative growth vs compound-free control (100%), 7 days
[12] = tested on: Cercospora sojina; assay: microbe, parasite or virus in culture; type: cell-based; settings: 168 h, read-out: Fungal growth (%) CERCSO
[13] = relative growth vs compound-free control (100%), 7 days
[14] = protective, inoculation 2 days after spraying, % diseased leaf area
[15] = protective, inoculation six days after spraying, % diseased leaf area
[16] = 0.063 ppm, relative growth vs compound-free control (100%), 7 days

Compound: CNC(=O)/C(=N/OC)c1cccc(C)c1CO/N=C(\C)c1ccccc1C [compound 127]
- % PHAKPA (F129L) Disease level, P2 at 4 ppm ([1]; soybean rust F129L): 90%
- % PHAKPA (F129L) Disease level, P2 at 16 ppm ([1]; soybean rust F129L): 44%
- % PHAKPA (F129L) Disease level, P6 at 4 ppm ([2]; soybean rust F129L): 93%
- % PHAKPA (F129L) Disease level, P6 at 16 ppm ([2]; soybean rust F129L): 62%

Compound: CNC(=O)/C(=N/OC)c1cccc(C)c1CO/N=C(\OC)c1cccc(C(F)(F)F)c1
- Fungal growth (%) SEPTTR [3, 13]: 77%

Compound: CNC(=O)/C(=N/OC)c1cccc(C)c1CO/N=C(\SC)c1cccc(Cl)c1 [drawing 981, reference compound]
- % PHAKPA (F129L) Disease level, P2 at 4 ppm [1]: 20%
- % PHAKPA (F129L) Disease level, P6 at 16 ppm [2]: 9%

Compound: CNC(=O)/C(=N/OC)c1cccc(C)c1CO/N=C(\C)c1c(Cl)cc(Cl)cc1OC(F)(F)F [compound 428]
- % PHAKPA (F129L) Disease level, P2 at 4 ppm [1]: 70%
- % PHAKPA (F129L) Disease level, P2 at 16 ppm [1]: 11%
- % PHAKPA (F129L) Disease level, P6 at 4 ppm [2]: 83%
- % PHAKPA (F129L) Disease level, P6 at 16 ppm [2]: 20%

Compound: CNC(=O)/C(=N/OC)c1cccc(C)c1CO/N=C(\SC)c1cccc(C(F)(F)F)c1 [reference compound]
- % PHAKPA (F129L) Disease level, P6 at 4 ppm [2]: 43%

Compound: CO/N=C(/C(=O)OC)c1cccc(C)c1CO/N=C(\C)c1cccc(OC(F)(F)F)c1 [compound 28]
- PHAKPA (F129L) Disease level (%) P2 at 16 ppm [1, 14]: 30%
- % PHAKPA (F129L) Disease level, P2 at 16 ppm ([1]; soybean rust F129L): 0%
- PHAKPA (F129L) Disease level (%) P6 at 16 ppm [2, 15]: 18%
- % PHAKPA (F129L) Disease level, P6 at 16 ppm ([2]; soybean rust F129L): 0%

Compound: CO/N=C(/C(=O)OC)c1cccc(C)c1CO/N=C(\SC)c1cccc(C)c1 [drawing 974, reference compound]
- % PHAKPA (F129L) Disease level, P2 at 4 ppm [1]: 60%
- % PHAKPA (F129L) Disease level, P6 at 16 ppm [2]: 30%

Compound: CO/N=C(/C(=O)OC)c1cccc(C)c1CO/N=C(/c1cccc(Cl)c1)C1CC1 [drawing 963]
- Fungal growth (%) SEPTTR [3]: 39%

Compound: CO/N=C(/C(=O)OC)c1cccc(C)c1CO/N=C(\C)c1cccc(Cl)c1 [compound 153]
- Fungal growth (%) LEPTNO ([4]; 0.063 ppm): 55%
- % PHAKPA (F129L) Disease level, P2 at 4 ppm [1]: 19%
- Fungal growth (%) PYRNTE wt ([5]; 0.25 ppm): 31%
- PHAKPA (F129L) Disease level (%) P6 at 16 ppm [2, 15]: 1%
- % PHAKPA (F129L) Disease level, P6 at 16 ppm [2]: 5%
- Fungal growth (%) COLLLA ([6]; 0.063 ppm): 55%
- Fungal growth (%) SEPTTR [3]: 0%

Compound: CNC(=O)/C(=N/OC)c1cccc(C)c1CO/N=C(\C)c1cccc(C(F)(F)F)c1 [compound 8]
- Fungal growth (%) LEPTNO [4, 16]: 70%
- PHAKPA (F129L) Disease level (%) P6 at 4 ppm ([2]; 4 ppm, protective, inoculation six days after spraying, % diseased leaf area): 13%
- % PHAKPA (F129L) Disease level, P6 at 4 ppm [2]: 1%
- Fungal growth (%) ALTESO F129L ([7]; 0.016 ppm, listed as Ex. 8): 52%

Compound: CO/N=C(/C(=O)OC)c1cccc(C)c1CO/N=C(\SC)c1cccc(Cl)c1 [drawing 984, reference compound]
- % PHAKPA (F129L) Disease level, P2 at 4 ppm [1]: 47%
- % PHAKPA (F129L) Disease level, P6 at 16 ppm [2]: 18%

Compound: CNC(=O)/C(=N/OC)c1cccc(C)c1CO/N=C(\C)c1cccc(C)c1 [compound 77]
- Fungal growth (%) COLLLA ([6]; 0.063 ppm): 39%
- Fungal growth (%) SEPTTR [3]: 49%

Compound: CNC(=O)/C(=N/OC)c1cccc(C)c1CO/N=C(/c1cccc(C)c1)C1CC1 [drawing 960]
- Fungal growth (%) SEPTTR [3]: 87%

Compound: C=Cc1cccc(/C(=N\OC)C(=O)NC)c1CO/N=C(\C)c1ccccc1 [compound 400]
- % PHAKPA (F129L) Disease level, P2 at 4 ppm [1]: 2%
- % PHAKPA (F129L) Disease level, P2 at 16 ppm [1]: 0%
- % PHAKPA (F129L) Disease level, P6 at 4 ppm [2]: 8%
- % PHAKPA (F129L) Disease level, P6 at 16 ppm [2]: 0%

Compound: CNC(=O)/C(=N/OC)c1cccc(C)c1CO/N=C(\SC)c1cccc(Cl)c1 [drawing 968]
- Fungal growth (%) SEPTTR [3]: 59%

Compound: CNC(=O)/C(=N/OC)c1cccc(C)c1CO/N=C(\CC(F)(F)F)c1ccc(F)cc1C [compound 394]
- % PHAKPA (F129L) Disease level, P2 at 4 ppm [1]: 9%
- % PHAKPA (F129L) Disease level, P2 at 16 ppm [1]: 3%
- % PHAKPA (F129L) Disease level, P6 at 4 ppm [2]: 12%
- % PHAKPA (F129L) Disease level, P6 at 16 ppm [2]: 2%

Compound: CNC(=O)/C(=N/OC)c1cccc(C)c1CO/N=C(\C)c1cccc(Cl)c1 [compound 157]
- PHAKPA (F129L) Disease level (%) P2 at 4 ppm ([1]; 4 ppm, protective, inoculation 2 days after spraying, % diseased leaf area): 0%
- % PHAKPA (F129L) Disease level, P2 at 4 ppm [1]: 1%
- Fungal growth (%) PYRNTE wt ([5]; 0.25 ppm): 54%
- % PHAKPA (F129L) Disease level, P6 at 16 ppm [2]: 1%
- Fungal growth (%) COLLLA ([6]; 0.063 ppm): 63%
- Fungal growth (%) SEPTTR [3]: 20%

Compound: CO/N=C(/C(=O)OC)c1cccc(C)c1CO/N=C(/c1cccc(C)c1)C1CC1 [drawing 973, reference compound]
- % PHAKPA (F129L) Disease level, P2 at 4 ppm [1]: 80%
- % PHAKPA (F129L) Disease level, P6 at 16 ppm [2]: 37%

Compound: CO/N=C(/C(=O)OC)c1cccc(C)c1CO/N=C(\C)c1cccc(C(F)(F)F)c1 [compound 9]
- PHAKPA (F129L) Disease level (%) P6 at 16 ppm [2, 15]: 4%
- % PHAKPA (F129L) Disease level, P6 at 16 ppm [2]: 1%

Compound: CO/N=C(/C(=O)OC)c1cccc(C)c1CO/N=C(\OC)c1cccc(C(F)(F)F)c1 [reference compound]
- % PHAKPA (F129L) Disease level, P6 at 16 ppm [2]: 23%

Compound: CO/N=C(/C(=O)OC)c1cccc(C)c1CO/N=C(\C)c1cccc(C)c1 [compound 76]
- % PHAKPA (F129L) Disease level, P2 at 4 ppm [1]: 35%
- PHAKPA (F129L) Disease level (%) P6 at 16 ppm [2, 15]: 0%
- % PHAKPA (F129L) Disease level, P6 at 16 ppm [2]: 4%
- Fungal growth (%) SEPTTR [3, 13]: 0%

Compound: CO/N=C(/C(=O)OC)c1cccc(C)c1CO/N=C(\C)c1ccccc1F [Ex. 1]
- PHAKPA (F129L) Disease level (%) P2 at 16 ppm [1, 14]: 28%
- % PHAKPA (F129L) Disease level, P2 at 4 ppm ([1]; soybean rust F129L): 80%
- % PHAKPA (F129L) Disease level, P2 at 16 ppm ([1]; soybean rust F129L): 27%
- PHAKPA (F129L) Disease level (%) P6 at 16 ppm [2, 15]: 47%
- % PHAKPA (F129L) Disease level, P6 at 4 ppm ([2]; soybean rust F129L): 90%
- % PHAKPA (F129L) Disease level, P6 at 16 ppm ([2]; soybean rust F129L): 56%

Compound: CNC(=O)/C(=N/OC)c1cccc(C)c1CO/N=C(\C)c1cc(F)cc(F)c1 [compound 84]
- Fungal growth (%) LEPTNO [4]: 60%
- % PHAKPA (F129L) Disease level, P2 at 4 ppm ([1]; soybean rust F129L): 0%
- % PHAKPA (F129L) Disease level, P2 at 16 ppm ([1]; soybean rust F129L): 0%
- Fungal growth (%) PYRNTE wt [5]: 39%
- % PHAKPA (F129L) Disease level, P6 at 4 ppm ([2]; soybean rust F129L): 0%
- % PHAKPA (F129L) Disease level, P6 at 16 ppm ([2]; soybean rust F129L): 0%
- Fungal growth (%) MONGNI [8]: 32%
- Fungal growth (%) ALTESO wt [9]: 43%
- Fungal growth (%) COLLLA [6]: 33%
- Fungal growth (%) PYRIOR ([10]; 0.016 ppm, relative growth vs compound-free control (100%), 7 days): 48%
- Fungal growth (%) ALTEO F129L ([7]; 4 ppm): 39%
- Fungal growth (%) PYRNTE F129L [11]: 49%

Compound: CO/N=C(/C(=O)OC)c1cccc(C)c1CO/N=C(\SC)c1cccc(C)c1 [drawing 952]
- Fungal growth (%) SEPTTR [3, 13]: 61%

Compound: CO/N=C(/C(=O)OC)c1cccc(C)c1CO/N=C(\C)c1cccc(C)c1 [drawing 956, reference compound]
- activity at 0.063 ppm [4, 16]: 65%
- activity at 0.25 ppm ([5]; Pyrenophora teres, 168 h, 0.25 ppm, relative growth vs compound-free control (100%), 7 days, read-out: Fungal growth (%) PYRNTE wt): 53%
- activity at 0.016 ppm ([9]; Alternaria solani, 168 h, read-out: Fungal growth (%) ALTESO wt): 93%
- activity at 4 ppm [12]: 67%
- activity at 0.016 ppm ([7]; Alternaria solani, 168 h, 0.016 ppm, read-out: Fungal growth (%) ALTESO F129L): 81%

Compound: CO/N=C(/C(=O)OC)c1cccc(C)c1CO/N=C(\SC)c1cccc(Cl)c1 [drawing 962]
- Fungal growth (%) SEPTTR [3]: 39%

Compound: CNC(=O)/C(=N/OC)c1cccc(C)c1CO/N=C(/c1cccc(C)c1)C1CC1 [drawing 977, reference compound]
- % PHAKPA (F129L) Disease level, P2 at 4 ppm [1]: 67%
- % PHAKPA (F129L) Disease level, P6 at 16 ppm [2]: 67%

Compound: CO/N=C(/C(=O)OC)c1cccc(C)c1CO/N=C(/c1cccc(Cl)c1)C1CC1 [drawing 983, reference compound]
- % PHAKPA (F129L) Disease level, P2 at 4 ppm [1]: 83%
- % PHAKPA (F129L) Disease level, P6 at 16 ppm [2]: 87%

Compound: CNC(=O)/C(=N/OC)c1cccc(C)c1CO/N=C(\OC)c1cccc(C)c1 [drawing 959]
- Fungal growth (%) SEPTTR [3]: 100%

Compound: CO/N=C(/C(=O)OC)c1cccc(C)c1CO/N=C(\OC)c1cccc(C)c1 [reference compound]
- % PHAKPA (F129L) Disease level, P2 at 4 ppm [1]: 83%
- % PHAKPA (F129L) Disease level, P6 at 16 ppm [2]: 57%

Compound: CO/N=C(/C(=O)OC)c1cccc(C)c1CO/N=C(\OC)c1cccc(OC(F)(F)F)c1 [reference compound]
- activity at 0.063 ppm [4, 16]: 100%
- activity at 0.016 ppm ([10]; Pyricularia oryzae, 168 h, read-out: Fungal growth (%) PYRIOR): 58%
- activity at 4 ppm [12]: 56%

Compound: CNC(=O)/C(=N/OC)c1cccc(C)c1CO/N=C(\OC)c1cccc(C)c1 [drawing 976, reference compound]
- % PHAKPA (F129L) Disease level, P6 at 16 ppm [2]: 45%

Compound: CO/N=C(/C(=O)OC)c1cccc(C)c1CO/N=C(/c1cccc(C)c1)C1CC1 [drawing 953]
- Fungal growth (%) SEPTTR [3, 13]: 89%
